Earlier results on 3 compounds are cited in article PMC8725427 (Cellulose (London, England), 2022).

For series [1] the following is noted: in vitro, over a period concerned; ref Vedula et al. ([2016]).
The conditions of series [2]: from nanoliposomal carrier, simulated lung fluid; ref Vartak et al. ([2021]).
For the next series, the system named is SARS-CoV-1. As to conditions: read-out: EC50 for SARS-CoV-1 replication inhibition.
The target of a further series is HIV-1 integrase. As to conditions: read-out: IC50 to inhibit the HIV-1 integrase; ref Mazumder et al. [1995].
A further series has as its system chikungunya virus. As to conditions: read-out: IC50 for chikungunya virus; ref von Rhein et al. [2016].
The conditions of series [3]: carboxymethyl cellulose 2% (w/v) in PBS medium; ref Gunathilake et al. [2020b].
The test system of a further series is influenza A virus. As to conditions: read-out: IC50 for influenza A virus; ref Richart et al. [2018].
Series [4] relates to transmissible gastroenteritis virus. As to conditions: read-out: IC50 for transmissible gastroenteritis virus; ref Li et al. [2020].
Another series concerns influenza A virus (IAV). As to conditions: ref Chen et al. [2010].
Another series concerns healthy organs. As to conditions: doses as high as 8 g/day; ref Almosa et al. [2020].
Series [5] concerns vesicular stomatitis virus. As to conditions: read-out: IC50 for vesicular stomatitis virus.

For `Nc1nc2c(ncn2COCCO)c(=O)[nH]1` [ACV, acyclovir], the “Percentage of drug release” value in [1] is reported as approximately 5%.

Regarding `CCC(CC)COC(=O)[C@H](C)N[P@](=O)(OC[C@H]1O[C@@](C#N)(c2ccc3c(N)ncnn23)[C@H](O)[C@@H]1O)Oc1ccccc1` [Remdesivir, remdesivir], the “Time to complete drug release” value in series [2] is recorded as not above 50 h.

For the compound `COc1cc(/C=C/C(=O)CC(=O)/C=C/c2ccc(O)c(OC)c2)ccc1O` [curcumin], the EC50 with SARS-CoV-1 is more than 10 µM. Also, the IC50 was 40 µM on HIV-1 integrase; 10.8 µM in the series on chikungunya virus; approximately 0.2 µM in the series with influenza A virus; 8.6 µM in [4]; 4.5 µM in [5]. In addition, the “Curcumin solubility in carboxymethyl cellulose medium” value in series [3] is 147 ± 5.66 µg/mL. Besides, in the series with influenza A virus (IAV), the “Effective dose against influenza A virus (IAV)” value is given as ~ 10 µM. Further, the “Lethal effect on healthy organs” value with healthy organs is given as “no lethal effect”.
